Laboratory results as given in patent publication US12479895B2, “C-terminal CDNF and MANF fragments, pharmaceutical compositions comprising same and uses thereof” (MyNeuroCure Oy, priority 2018, dated 2025).

Key:
ER stressed SCG neurons = experiment: Survival of tunicamycin-treated (ER stressed) SCG sympathetic neurons after microinjection; format: cell-based, mice; details: for survived neurons as % compared to neurons grown in the presence of NGF: microinjected into cytoplasm, tunicamycin 2 μM, CDNF (400); for Fold change of survived neurons compared to neurons injected with PBS: data of Table 1 divided by values of PBS
Procedure: Non-neuronal cells were removed by extensive preplating. Almost pure neurons were cultured in polyornithine/laminin (Sigma)-coated 35-mm plastic dishes in the small-size standard microislands in the Neurobasal medium and B27 supplement (Invitrogen/Gibco) in the presence of 30 ng/ml mouse nerve growth factor (NGF) (Promega) for 5-6 days. NGF was deprived by extensive washing and addition of the function-blocking anti-NGF antibodies (Roche). The neurons were pressure-microinjected with special neuronal microinjection equipment (Hellman et al., 2011; Hamner et al., 2001; Lindholm et al., 2002; Sun et al., 2001; Yu et al., 2003)(Sun et al., 2001; Sun et al., 2003). For the survival assay, all neurons on the microislands were counted in the beginning (initial number) and the end (three days) of the experiment and expressed as % of initial.
Microinjection of the sympathetic neurons was performed as described earlier (Yu, L. Y., Jokitalo, E., Sun, Y. F., Mehlen, P., Lindholm, D., Saarma, M., and Arumae, U. (2003) J Cell Biol. 163, 987-997). Plasmids for CDNF have been described earlier. Briefly, newborn mouse SCG neurons were grown with NGF (Promega) for 5-6 days then the nuclei were microinjected with the expression plasmids for full-length (FL)-CDNF and C-CDNF together with a reporter plasmid for enhanced green fluorescent protein (EGFP), using vector concentration of 10 ng/ul in each experiment. […] For protein microinjection, recombinant full length (FL)-CDNF, C-CDNF proteins in PBS at 200 ng/ul were microinjected directly into the cytoplasm together with fluorescent reporter Dextran Texas Red (MW 70000 Da) (Invitrogen, Molecular Probes) that facilitates identification of the successfully injected neurons. Next day tunicamycin (2 μM) was added, and after 3 days the living fluorescent neurons were counted. Living fluorescent (EGFP-expressing or Dextran Texas Red-containing) neurons were “blindly” counted three days later and expressed as percent of initial living fluorescent neurons counted 2-3 hours after microinjection. The experiments with plasmids were repeated on independent cultures 5 times for plasmid experiment, whereas four independent protein injection experiments were performed. On average, 50-80 neurons were successfully injected per experimental group. The results were expressed as the mean±the SEM. Data of each experimental group was compared with control plasmid PCR3.1 (vector) or PBS (in the protein injection experiments) by one-way ANOVA and post hoc Dunnett's t test. The null hypothesis was rejected at p<0.05.

dopamine neurons = experiment: Survival of TH-positive dopamine neurons in dissociated midbrain floor cultures; format: cell-based, mouse; details: for Fold change of survived neurons compared to neurons grown without growth factors: data of Table 3 divided by values of no factor
Procedure: To study the dopamine neurons (Yu et al., 2008; Yu and Arumae, 2008), the midbrain floors were dissected from the ventral mesencephali of 13.5-d-old NMRI strain mouse embryos. Tissues were incubated with 0.5% trypsin (ICN Biomedical), then mechanically dissociated using a large fire-polished Pasteur pipette. The neurons were grown on the poly-L-ornithine-coated (Sigma) 96-well culture plates in DMEM/F12 medium (Invitrogen) containing N2 supplement (Invitrogen) in the presence or absence of GDNF (100 ng/ml) or with CDNF, MANF, C-CDNF and C-MANF polypeptides at different concentrations for five days. Same amount of the neurons were plated to each well at the beginning of the experiments. The cultures without added neurotrophic factors served as the negative control. As the midbrain cultures contain several neuronal types, the cultures were fixed and immunostained with the antibodies to tyrosine hydroxylase (TH) (Millipore), a specific marker for the dopaminergic neurons. Images of each well were scanned by CellInsight™ and immunopositive neurons were counted by CellProfiler and CellProfiler analyst software. Data are expressed as a percentage of GDNF-maintained TH-positive neurons. All experiments were repeated at least three times on the independent cultures. The results were expressed as the mean the SEM and were tested for the significance by either one-way ANOVA and Tukey's post hoc test or by two-tailed Student's t-test. The null hypothesis was rejected at P≤0.05.

## TLDLASVDLRKMRVAELKQILHSWGEECRACAEKTDYVNLIQELAPKYAATHPKTEL (listed as Homo sapiens) [pep2]
ER stressed SCG neurons; Table 1A (FIG. 14), AVG of exp1-2
  survived neurons as % compared to neurons grown in the presence of NGF: 77.52 % NGF
ER stressed SCG neurons; Table 1A (FIG. 14), exp1, counted after 3 days
  survived neurons as % compared to neurons grown in the presence of NGF: 79.71 % NGF
ER stressed SCG neurons; Table 1A (FIG. 14), exp2, counted after 3 days
  survived neurons as % compared to neurons grown in the presence of NGF: 75.32 % NGF
ER stressed SCG neurons; Table 2, AVG
  Fold change of survived neurons compared to neurons injected with PBS: 2.11 Fold to PBS
ER stressed SCG neurons; Table 2, exp1
  Fold change of survived neurons compared to neurons injected with PBS: 2.32 Fold to PBS
ER stressed SCG neurons; Table 2, exp2
  Fold change of survived neurons compared to neurons injected with PBS: 1.90 Fold to PBS
Dopamine neurons; Table 3A (FIG. 15), AVG, 1 ng/ml, 5 days
  survived neurons as % compared to neurons grown in the presence of GDNF: 67.69 % GDNF
Dopamine neurons; Table 3A (FIG. 15), AVG, 10 ng/ml, 5 days
  survived neurons as % compared to neurons grown in the presence of GDNF: 69.82 % GDNF
Dopamine neurons; Table 3A (FIG. 15), AVG, 100 ng/ml, 5 days
  survived neurons as % compared to neurons grown in the presence of GDNF: 68.98 % GDNF
Dopamine neurons; Table 3A (FIG. 15), AVG, 1000 ng/ml, 5 days
  survived neurons as % compared to neurons grown in the presence of GDNF: 66.30 % GDNF
Dopamine neurons; Table 3A (FIG. 15), exp1, 1 ng/ml, 5 days
  survived neurons as % compared to neurons grown in the presence of GDNF: 81.18 % GDNF
Dopamine neurons; Table 3A (FIG. 15), exp1, 10 ng/ml, 5 days
  survived neurons as % compared to neurons grown in the presence of GDNF: 74.74 % GDNF
Dopamine neurons; Table 3A (FIG. 15), exp1, 100 ng/ml, 5 days
  survived neurons as % compared to neurons grown in the presence of GDNF: 81.00 % GDNF
Dopamine neurons; Table 3A (FIG. 15), exp1, 1000 ng/ml, 5 days
  survived neurons as % compared to neurons grown in the presence of GDNF: 83.01 % GDNF
Dopamine neurons; Table 3A (FIG. 15), exp2, 1 ng/ml, 5 days
  survived neurons as % compared to neurons grown in the presence of GDNF: 52.61 % GDNF
Dopamine neurons; Table 3A (FIG. 15), exp2, 10 ng/ml, 5 days
  survived neurons as % compared to neurons grown in the presence of GDNF: 58.93 % GDNF
Dopamine neurons; Table 3A (FIG. 15), exp2, 100 ng/ml, 5 days
  survived neurons as % compared to neurons grown in the presence of GDNF: 47.98 % GDNF
Dopamine neurons; Table 3A (FIG. 15), exp2, 1000 ng/ml, 5 days
  survived neurons as % compared to neurons grown in the presence of GDNF: 52.95 % GDNF
Dopamine neurons; Table 3A (FIG. 15), exp3, 1 ng/ml, 5 days
  survived neurons as % compared to neurons grown in the presence of GDNF: 69.28 % GDNF
Dopamine neurons; Table 3A (FIG. 15), exp3, 10 ng/ml, 5 days
  survived neurons as % compared to neurons grown in the presence of GDNF: 75.80 % GDNF
Dopamine neurons; Table 3A (FIG. 15), exp3, 100 ng/ml, 5 days
  survived neurons as % compared to neurons grown in the presence of GDNF: 77.95 % GDNF
Dopamine neurons; Table 3A (FIG. 15), exp3, 1000 ng/ml, 5 days
  survived neurons as % compared to neurons grown in the presence of GDNF: 62.94 % GDNF
Dopamine neurons; Table 4, AVG, 1 ng/ml
  Fold change of survived neurons compared to neurons grown without growth factors: 1.11 fold
Dopamine neurons; Table 4, AVG, 10 ng/ml
  Fold change of survived neurons compared to neurons grown without growth factors: 1.14 fold
Dopamine neurons; Table 4, AVG, 100 ng/ml
  Fold change of survived neurons compared to neurons grown without growth factors: 1.13 fold
Dopamine neurons; Table 4, AVG, 1000 ng/ml
  Fold change of survived neurons compared to neurons grown without growth factors: 1.09 fold
Dopamine neurons; Table 4, exp1, 1 ng/ml
  Fold change of survived neurons compared to neurons grown without growth factors: 1.42 fold
Dopamine neurons; Table 4, exp1, 10 ng/ml
  Fold change of survived neurons compared to neurons grown without growth factors: 1.31 fold
Dopamine neurons; Table 4, exp1, 100 ng/ml
  Fold change of survived neurons compared to neurons grown without growth factors: 1.42 fold
Dopamine neurons; Table 4, exp1, 1000 ng/ml
  Fold change of survived neurons compared to neurons grown without growth factors: 1.45 fold
Dopamine neurons; Table 4, exp2, 1 ng/ml
  Fold change of survived neurons compared to neurons grown without growth factors: 0.83 fold
Dopamine neurons; Table 4, exp2, 10 ng/ml
  Fold change of survived neurons compared to neurons grown without growth factors: 0.93 fold
Dopamine neurons; Table 4, exp2, 100 ng/ml
  Fold change of survived neurons compared to neurons grown without growth factors: 0.76 fold
Dopamine neurons; Table 4, exp2, 1000 ng/ml
  Fold change of survived neurons compared to neurons grown without growth factors: 0.84 fold
Dopamine neurons; Table 4, exp3, 1 ng/ml
  Fold change of survived neurons compared to neurons grown without growth factors: 1.07 fold
Dopamine neurons; Table 4, exp3, 10 ng/ml
  Fold change of survived neurons compared to neurons grown without growth factors: 1.17 fold
Dopamine neurons; Table 4, exp3, 100 ng/ml
  Fold change of survived neurons compared to neurons grown without growth factors: 1.20 fold
Dopamine neurons; Table 4, exp3, 1000 ng/ml
  Fold change of survived neurons compared to neurons grown without growth factors: 0.97 fold

## TLDLASVDLRKMRVAEPKQILHSWGEECRACAEKTDYVNLIQEPAPKYA (Mutated C-CDNF peptide) [pep14]
ER stressed SCG neurons; Table 1B (FIG. 16), exp1, counted after 3 days
  survived neurons as % compared to neurons grown in the presence of NGF: 55.76 % NGF
ER stressed SCG neurons; Table 1B (FIG. 16), exp2, counted after 3 days
  survived neurons as % compared to neurons grown in the presence of NGF: 34.32 % NGF
ER stressed SCG neurons; Table 1B (FIG. 16), exp3, counted after 3 days
  survived neurons as % compared to neurons grown in the presence of NGF: 48.43 % NGF
Dopamine neurons; Table 3B (FIG. 17), AVG, 1 ng/ml, 5 days
  survived neurons as % compared to neurons grown in the presence of GDNF: 71.49 % GDNF
Dopamine neurons; Table 3B (FIG. 17), AVG, 10 ng/ml, 5 days
  survived neurons as % compared to neurons grown in the presence of GDNF: 84.24 % GDNF
Dopamine neurons; Table 3B (FIG. 17), AVG, 100 ng/ml, 5 days
  survived neurons as % compared to neurons grown in the presence of GDNF: 85.71 % GDNF
Dopamine neurons; Table 3B (FIG. 17), AVG, 1000 ng/ml, 5 days
  survived neurons as % compared to neurons grown in the presence of GDNF: 82.81 % GDNF
Dopamine neurons; added to the culture medium, 5 days, TH-positive neurons counted
  protection of dopaminergic neurons in culture (result in words): best protective effect
